Assay results as given in ChEMBL document CHEMBL1201862, “PubChem BioAssay data set” (2004).
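Each compound was tested at five concentrations against cells in 96-well plates for 48 hours. The concentration for 50% growth inhibition is given as GI50.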 Calls of active or inactive are those of the source. Rule as the data show it: active = GI50 up to about 1.1 µM and inactive = higher.

Columns and labels:
Experiment in all cases: NCI anticancer screen, dose series, 48 h
SF-539 = system: SF-539
HCT-15 = system: HCT-15
ACHN = system: ACHN
OVCAR-5 = system: OVCAR-5
RPMI-8226 = system: RPMI-8226
DLD-1 = system: DLD-1
SK-MEL-5 = system: SK-MEL-5
HT-29 = system: HT-29
KM12 = system: KM12
SNB-19 = system: SNB-19
SNB-75 = system: SNB-75
A498 = system: A498
EKVX = system: EKVX
HCT-116 = system: HCT-116
K562 = system: K562
SN12C = system: SN12C
HOP-92 = system: HOP-92
NCI-H226 = system: NCI-H226
BT-549 = system: BT-549
PC-3 = system: PC-3

SMILES	GI50 (SF-539)	GI50 (HCT-15) [µM]	GI50 (ACHN)	GI50 (OVCAR-5)	GI50 (RPMI-8226)	GI50 (DLD-1)	GI50 (SK-MEL-5)	GI50 (HT-29)	GI50 (KM12)	GI50 (SNB-19)	GI50 (SNB-75)	GI50 (A498)	GI50 (EKVX)	GI50 (HCT-116)	GI50 (K562)	GI50 (SN12C)	GI50 (HOP-92)	GI50 (NCI-H226)	GI50 (BT-549)	GI50 (PC-3)
O=C(CN(Cc1ccccc1)Cc1ccccc1)N1CCc2c([nH]c3ccccc23)C1c1cccnc1 (centres undefined)	12.2 µM (inactive)	5.64	7.64 µM (inactive)	7.38 µM (inactive)	1.86 µM (inactive)	6.4 µM (inactive)	7.23 µM (inactive)	5.57 µM (inactive)	4.14 µM (inactive)	19.5 µM (inactive)	7.36 µM (inactive)	16.7 µM (inactive)	7.71 µM (inactive)	3.74 µM (inactive)	3.17 µM (inactive)	2.71 µM (inactive)	2.79 µM (inactive)	–	–	–
CC(Oc1ccc(OCC2CCCCC2)cc1)C(=O)OCC(=O)c1ccc(-c2ccccc2)cc1 (centres undefined)	> 100 µM (inactive)	> 100	> 100 µM (inactive)	–	–	> 100 µM (inactive)	> 100 µM (inactive)	> 100 µM (inactive)	> 100 µM (inactive)	> 100 µM (inactive)	> 100 µM (inactive)	> 100 µM (inactive)	–	> 100 µM (inactive)	> 100 µM (inactive)	> 100 µM (inactive)	–	> 100 µM (inactive)	–	–
COc1cccc(-c2cc(O)c3cc(OC)c(OC)cc3n2)c1	26.4 µM (inactive)	52.6	> 100 µM (inactive)	–	45.3 µM (inactive)	42.3 µM (inactive)	–	20.1 µM (inactive)	24.2 µM (inactive)	58.2 µM (inactive)	34.8 µM (inactive)	–	97.7 µM (inactive)	–	40.3 µM (inactive)	68.7 µM (inactive)	–	–	–	–
O=C1C(c2ccccc2)=C(c2ccccc2)[C@H](c2ccccc2)[C@]1(Cc1nnn(-c2ccc([N+](=O)[O-])cc2)c1N1CCOCC1)c1ccccc1	> 37.5 µM (inactive)	> 37.5	14.5 µM (inactive)	–	> 37.5 µM (inactive)	> 37.5 µM (inactive)	19.1 µM (inactive)	> 37.5 µM (inactive)	–	35.9 µM (inactive)	> 37.5 µM (inactive)	> 37.5 µM (inactive)	> 37.5 µM (inactive)	28.7 µM (inactive)	> 37.5 µM (inactive)	> 37.5 µM (inactive)	0.00621 µM (active)	–	–	–
COc1cc2c(cc1OC)[C@]1(O)C(=O)c3ccc4c(c3O[C@@H]1CO2)C[C@H](C(C)(C)O)O4	> 100 µM (inactive)	–	15.1 µM (inactive)	> 100 µM (inactive)	36.5 µM (inactive)	> 100 µM (inactive)	–	> 100 µM (inactive)	> 100 µM (inactive)	> 100 µM (inactive)	22 µM (inactive)	45.8 µM (inactive)	10.3 µM (inactive)	26.2 µM (inactive)	17.1 µM (inactive)	–	33.6 µM (inactive)	–	–	–
N#CCCc1nc2ccc(Br)cc2c(=O)n1CCO	> 100 µM (inactive)	> 100	–	–	> 100 µM (inactive)	> 100 µM (inactive)	> 100 µM (inactive)	–	> 100 µM (inactive)	–	> 100 µM (inactive)	–	> 100 µM (inactive)	–	> 100 µM (inactive)	> 100 µM (inactive)	> 100 µM (inactive)	> 100 µM (inactive)	–	–
O=[N+]([O-])c1cccc(C2SCc3nc4ccccc4n32)c1 (centres undefined)	> 100 µM (inactive)	–	62.7 µM (inactive)	39.3 µM (inactive)	–	62.8 µM (inactive)	19.6 µM (inactive)	> 100 µM (inactive)	> 100 µM (inactive)	> 100 µM (inactive)	–	77.6 µM (inactive)	66.2 µM (inactive)	–	49.5 µM (inactive)	97.3 µM (inactive)	19 µM (inactive)	39.6 µM (inactive)	–	–
CC(C)C(/C=C/c1ccccc1)=N\NC(=O)N/N=C(/C=C/c1ccccc1)C(C)C	31.1 µM (inactive)	20.7	26.9 µM (inactive)	38.2 µM (inactive)	24.3 µM (inactive)	34.8 µM (inactive)	21.7 µM (inactive)	26.5 µM (inactive)	36.3 µM (inactive)	37.7 µM (inactive)	25.8 µM (inactive)	–	8.36 µM (inactive)	19.1 µM (inactive)	21.2 µM (inactive)	17.3 µM (inactive)	20.7 µM (inactive)	18.2 µM (inactive)	–	–
N/N=C1\C(=O)N(Cc2ccccc2)C(=O)C1C(=O)NCc1ccccc1 (centres undefined)	> 100 µM (inactive)	> 100	> 100 µM (inactive)	> 100 µM (inactive)	> 100 µM (inactive)	> 100 µM (inactive)	> 100 µM (inactive)	> 100 µM (inactive)	> 100 µM (inactive)	> 100 µM (inactive)	–	> 100 µM (inactive)	> 100 µM (inactive)	> 100 µM (inactive)	> 100 µM (inactive)	> 100 µM (inactive)	> 100 µM (inactive)	–	–	–
Cc1cccc(CC(C)(C)C)c1NC(=O)C(=O)C(C(=O)c1ccc2ccccc2c1)C1OC(=O)c2ccccc21 (centres undefined)	2.95 µM (inactive)	15.3	18 µM (inactive)	15.2 µM (inactive)	10.1 µM (inactive)	14 µM (inactive)	13.1 µM (inactive)	20.2 µM (inactive)	14.5 µM (inactive)	10.6 µM (inactive)	–	13.2 µM (inactive)	20.7 µM (inactive)	6.73 µM (inactive)	–	15.8 µM (inactive)	1.14 µM (inactive)	2.4 µM (inactive)	–	–
NC(=O)NC1C(C(N)=O)N(Cc2ccccc2)C(=O)N1Cc1ccccc1 (centres undefined)	> 100 µM (inactive)	> 100	> 100 µM (inactive)	40.7 µM (inactive)	> 100 µM (inactive)	> 100 µM (inactive)	> 100 µM (inactive)	> 100 µM (inactive)	> 100 µM (inactive)	> 100 µM (inactive)	> 100 µM (inactive)	–	> 100 µM (inactive)	> 100 µM (inactive)	> 100 µM (inactive)	–	> 100 µM (inactive)	–	–	–
Cc1cccc(C(=O)O)c1C(=O)c1cccc2ccccc12	–	37.7	> 100 µM (inactive)	> 100 µM (inactive)	–	> 100 µM (inactive)	> 100 µM (inactive)	> 100 µM (inactive)	> 100 µM (inactive)	> 100 µM (inactive)	> 100 µM (inactive)	88.3 µM (inactive)	> 100 µM (inactive)	> 100 µM (inactive)	65 µM (inactive)	> 100 µM (inactive)	–	> 100 µM (inactive)	–	–
C=C1Cc2cc(OC)c(OC)c(OC)c2-c2ccc(SC)c(=O)cc21	< 0.01 µM (active)	< 0.01	< 0.01 µM (active)	0.378 µM (active)	< 0.01 µM (active)	< 0.01 µM (active)	< 0.01 µM (active)	< 0.01 µM (active)	< 0.01 µM (active)	–	–	< 0.01 µM (active)	1.55 µM (inactive)	< 0.01 µM (active)	< 0.01 µM (active)	< 0.01 µM (active)	–	< 0.01 µM (active)	–	–
N#CC(NNC(=O)Cc1ccccc1)c1ccc([N+](=O)[O-])cc1 (centres undefined)	> 100 µM (inactive)	> 100	> 100 µM (inactive)	> 100 µM (inactive)	> 100 µM (inactive)	> 100 µM (inactive)	> 100 µM (inactive)	> 100 µM (inactive)	> 100 µM (inactive)	–	65.6 µM (inactive)	–	–	> 100 µM (inactive)	> 100 µM (inactive)	> 100 µM (inactive)	55.3 µM (inactive)	> 100 µM (inactive)	–	–
O=C1Nc2ccccc2/C1=C/c1c(Cl)[nH]c2ccc(O)cc12	0.544 µM (active)	0.971	4.7 µM (inactive)	4.04 µM (inactive)	3.43 µM (inactive)	–	1.21 µM (inactive)	3.16 µM (inactive)	1.37 µM (inactive)	3.21 µM (inactive)	1.95 µM (inactive)	2.31 µM (inactive)	3.28 µM (inactive)	0.719 µM (active)	0.649 µM (active)	0.641 µM (active)	5.69 µM (inactive)	1.08 µM (active)	4.84 µM (inactive)	2.32 µM (inactive)
C[N+]1(C)CCOC(O)(c2ccccc2)C1 (centres undefined)	> 100 µM (inactive)	> 100	> 100 µM (inactive)	> 100 µM (inactive)	> 100 µM (inactive)	–	> 100 µM (inactive)	> 100 µM (inactive)	> 100 µM (inactive)	> 100 µM (inactive)	> 100 µM (inactive)	> 100 µM (inactive)	> 100 µM (inactive)	> 100 µM (inactive)	> 100 µM (inactive)	> 100 µM (inactive)	> 100 µM (inactive)	> 100 µM (inactive)	> 100 µM (inactive)	> 100 µM (inactive)
COC(=O)[C@H](CCSC)NC(=O)c1ccc(CNC(=O)/C=C/c2cccc(Oc3ccccc3)c2)cc1	> 74.3 µM (inactive)	> 62.8	> 74.6 µM (inactive)	> 100 µM (inactive)	45.5 µM (inactive)	–	15.6 µM (inactive)	> 100 µM (inactive)	> 100 µM (inactive)	> 95.1 µM (inactive)	22.4 µM (inactive)	19.8 µM (inactive)	67.3 µM (inactive)	> 100 µM (inactive)	20.7 µM (inactive)	60.5 µM (inactive)	9.75 µM (inactive)	> 23.8 µM (inactive)	> 69.7 µM (inactive)	> 75 µM (inactive)
